Marks after values point to notes of the source that are not given here.
Columns and labels:
[1] = system: MES-induced seizure; experiment: Maximal electroshock seizure (MES) model of epilepsy; assay type: in vivo, Mouse/ICR; conditions: for Incidence of Tonic convulsion: Table 10.2, 10 mice per group, vehicle 9/10
Experimental: The vehicle used in this study was 2:1:17 (ethanol:Cremophor:0.9% ^w/v, NaCl). The test compounds used were cannabidiol (CBD) and cannabidivarin (CBDV). These were made to a solution at the highest concentration; these were then dissolved in ethanol before combination with Cremophor and 0.9% NaCl in the proportion described above. The CBD or CBDV were administered intraperitoneally at a volume of 10 ml/kg body weight. The SAED valproic acid (VBA) was dissolved in saline.
Animal Species/Strain: Mouse/ICR, Microbiological grade: SPF, Supplier: SLC Japan, Inc. […] Temperature: 23±2° C., Humidity: 60±10%, Light conditions: 7 AM to 7 PM for the light period, 7 PM to 7 AM for the dark period. Chow and water: Free access to CRF-1 (Oriental Yeast Co, Ltd) and tap water.
One day before each experiment, mice were weighed and randomized into several groups in each test. On the morning of the experiment day, body weight was measured in order to calculate the administration volume of each animal. Vehicle, CBD, CBDV or valproic acid sodium salt was interperitoneally administered 30 minutes before electric stimuli. Maximal electroshock seizures (MES) in mice was induced by a stimulator (UGO BASILE ECT UNIT 7801, Italia) using a current of 30 mA delivered with a pulse frequency of 100 Hz for 200 msec through earlap electrodes.
All statistical analyses were performed using SAS Software for Windows, Release 9.1 (SAS Institute Japan). The difference of the number (hindlimb extension or deaths) in each group was assessed using two-tailed Fisher's exact test.

[2] = system: PTZ-induced seizures; experiment: PTZ model of generalised seizures (80 mg/kg PTZ); assay type: in vivo, Wistar rats; conditions: for proportion of animals that died / proportion of animals reaching tonic-clonic seizures: vehicle 8 of 15
Experimental: Male Wistar rats (P24-29; 75-110 g) were used to assess the effects of the phytocannabinoid CBDV in the PTZ model of generalised seizures. Animals were habituated to the test environment, cages, injection protocol and handling prior to experimentation. Animals were housed in a room at 21° C. on a 12 hour light: dark cycle (lights on 0900) in 50% humidity, with free access to food and water.
Five 6 L Perspex tanks with lids were placed on a single bench with dividers between them. Closed-circuit television (CCTV) cameras were mounted onto the dividers to observe rat behaviour. Sony Topica CCD cameras (Bluecherry, USA) were linked via BNC cables to a low-noise PC via Brooktree digital capture cards (Bluecherry, USA). Zoneminder (http://www.zoneminder.com) software was used to monitor rats, start and end recordings and manage video files. In-house Linux scripts were used to encode video files into a suitable format for further offline analysis using The Observer (Noldus Technologies).
A range of doses of PTZ (50-100 mg/kg body weight) were used to determine the best dose for induction of seizures (see below). As a result, a dose of 80 mg/kg injected intra-peritoneally (IP; stock solution 50 mg/ml in 0.9% saline) were used to screen the CBDV.
On the day of testing, pure CBDV was administered via intra-peritoneal (i.p.) injection at doses of 50, 100 and 200 mg/kg alongside animals that were injected with a matched volume of the cannabinoid vehicle (2:1:17 ethanol:Cremophor: 0.9% w/v NaCl solution), which served as the negative control group. Animals were then observed for 1 hour, after which time they received an IP injection of 80 mg/kg PTZ. Negative vehicle controls were performed in parallel with cannabinoid-dosed subjects. After receiving a dose of PTZ, animals were observed and videoed to determine the severity of seizure and latency to several seizure behaviour types (see in vivo analysis, below). Animals were filmed for half an hour after last sign of seizure, and then returned to their cage.
Animals were observed during experimental procedures, but all analysis was performed offline on recorded video files using The Observer behavioural analysis software (Noldus, Netherlands). A seizure severity scoring system was used to determine the levels of seizure experienced by subjects (Pohl & Mares, 1987). All signs of seizure were detailed for all animals.
The latency (in seconds) from injection of PTZ to first myoclonic jerk (FMJ; score of 1), and to the animal attaining “forelimb clonus with tonic component and body twist” (score of 3.5) were recorded. FMJ is an indicator of the onset of seizure activity, whilst >90% of animals developed scores of 3.5, and so is a good marker of the development of more severe seizures. Data are presented as the mean±S.E.M. within an experimental group.
This is given as the median value for each experimental group based on the scoring scale below.
The percentage of animals within an experimental group that died as a result of PTZ-induced seizures. Note that the majority of animals that developed tonic-clonic seizures (scores of 4 and 5) died as a result, and that a score of 6 (death) automatically denotes that the animal also experienced tonic-clonic seizures.
This is given as the mean±S.E.M. for each experimental group.
For measures of latency and severity, one way analysis of variance (ANOVA) was performed on the four groups together (vehicle and 50, 100 and 200 mg/kg CBDV) to detect overall effects of CBDV (p≤0.05 considered significant).
Significant ANOVA results were followed by post hoc tests to test differences between vehicle and drug groups (Tukey's test, p≤0.05 considered significant).
Methodology as described in Example 2.
General methodology is as described in Example 2.
Three doses of THCV BDS were assessed against a concentration of PTZ known to induce moderate seizures in rats (70 mg/kg; see pilot, above). […]

C=C(C)[C@@H]1CCC(C)=C[C@H]1c1c(O)cc(CCC)cc1O [CBDV, Cannabidivarin]
Incidence of Tonic convulsion ([1]; 50 mg/kg i.p.): 9/10
Incidence of Tonic convulsion ([1]; 100 mg/kg i.p.): 3/10*
Incidence of Tonic convulsion ([1]; 200 mg/kg i.p.): 3/10*
inhibition of the expression of hindlimb extension ([1]; CBDV 100 and 200 mg/kg IP): significantly inhibited
proportion of animals that died ([2]; 100 mg/kg CBDV i.p., 80 mg/kg PTZ, p=0.002): 1 out of 15
proportion of animals reaching tonic-clonic seizures ([2]; 100 mg/kg CBDV i.p., 80 mg/kg PTZ, p=0.036): 4 of 15
latency to seizure onset vs vehicle ([2]; 200 mg/kg CBDV i.p. 1 hour before 80 mg/kg PTZ, p=0.03): significantly higher
median seizure severity vs vehicle ([2]; 200 mg/kg CBDV i.p., 80 mg/kg PTZ, p=0.014): significantly lower
latency to clonic seizures vs vehicle ([2]; 200 mg/kg CBDV i.p., 80 mg/kg PTZ, p=0.032): significant increase
animals that experienced no seizure at all ([2]; 200 mg/kg CBDV i.p., 80 mg/kg PTZ, vehicle 1 of 15, p=0.003): 5 of 15
proportion of animals that died ([2]; 200 mg/kg CBDV i.p., 80 mg/kg PTZ, p<0.001): 2 out of 15
proportion of animals reaching tonic-clonic seizures ([2]; 200 mg/kg CBDV i.p., 80 mg/kg PTZ, p=0.01): 3 of 15
latency to tonic-clonic seizures ([2]; overall or at any specific dose (50, 100, 200 mg/kg CBDV i.p.), 80 mg/kg PTZ): No significant effect
